# Test results published in patent publication EP4790066A1, “GLP-1R/GIPR/GCGR TRIPLE AGONIST ANALOGUE AND USE THEREOF” (Shenzhen Bay Laboratory, priority 2023, dated 2025).
# *1 amine or outer side, *2 acyl side, *3 side chain or, on linkers, in order; H or OH if unused. Where a SMILES comes first, the peptide text is derived from it. Bridges are numbered along the chain shown (N, C = ends). [ ]: non-standard residue; d: D form. X1 = O=C(O)CCCCCCCCCCCCCCCCCCC(=O)N[C@@H](CCCCNC(=O)COCCOCCNC(=O)COCCOCCNC(=O)CCC(=O)N(CCNC(=O)C[*:1])CCNC(=O)C[*:2])C(=O)O; Phe(2-F) = N[C@@H](Cc1ccccc1F)C(=O)O; Iva = CC[C@](C)(N)C(=O)O; Aib = CC(C)(N)C(=O)O
# Target: T1, GLP-1R (Homo sapiens, UniProt P43220)
# T1 construct: expressed in transfected cells
# T1 sequence (P43220 24-463, species assumed): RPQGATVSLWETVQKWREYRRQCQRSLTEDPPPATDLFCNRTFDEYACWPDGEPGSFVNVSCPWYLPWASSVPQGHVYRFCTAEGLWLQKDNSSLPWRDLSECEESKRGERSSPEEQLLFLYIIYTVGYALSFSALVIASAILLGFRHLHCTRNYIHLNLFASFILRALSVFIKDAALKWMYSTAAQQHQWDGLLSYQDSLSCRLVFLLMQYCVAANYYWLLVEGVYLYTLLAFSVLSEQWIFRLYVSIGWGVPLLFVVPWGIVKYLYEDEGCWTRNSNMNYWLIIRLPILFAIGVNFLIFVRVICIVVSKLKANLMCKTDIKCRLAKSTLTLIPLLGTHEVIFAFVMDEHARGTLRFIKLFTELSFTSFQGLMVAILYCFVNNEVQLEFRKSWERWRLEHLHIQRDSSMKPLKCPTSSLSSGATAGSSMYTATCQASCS
# Assay: CreLuc method (CRE-luciferase reporter), HEK293/pGM-CREB-L-Luc/GLP-1R pool
# Type: cell-based
# Settings: 6 h incubation, read-out: EC50 (pM) for each receptor GLP-1R
# How it was run: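 Stable HEK293 pools co-expressing each receptor with a CRE-luciferase reporter were plated at 20,000 cells/well in freestyle medium and treated with compound dilution series for 6 h at 37 °C. Luminescence was read with ONE-GLO to derive EC50.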
compound,measurement,value
CC[C@H](C)[C@@H]1NC(=O)[C@H](Cc2ccccc2)NC(=O)[C@@H](NC(=O)C(C)(C)NC(=O)[C@H](CCC(N)=O)NC(=O)[C@H](C)NC(=O)[C@H](CCCCNC(C)=O)NC(=O)[C@H](CCCCN)NC(=O)[C@H](CC(=O)O)NC(=O)[C@H](CC(C)C)NC(=O)[C@](C)(CC)NC(=O)[C@@H](NC(=O)[C@H](CO)NC(=O)[C@H](Cc2ccc(O)cc2)NC(=O)[C@H](CC(=O)O)NC(=O)[C@H](CO)NC(=O)[C@@H](NC(=O)[C@H](Cc2ccccc2F)NC(=O)[C@@H](NC(=O)CNC(=O)[C@H](CCC(N)=O)NC(=O)C(C)(C)NC(=O)[C@@H](N)Cc2ccc(O)cc2)[C@@H](C)O)[C@@H](C)O)[C@@H](C)CC)CSCC(=O)NCCN(C(=O)CCC(=O)NCCOCCOCC(=O)NCCOCCOCC(=O)NCCCC[C@H](NC(=O)CCCCCCCCCCCCCCCCCCC(=O)O)C(=O)O)CCNC(=O)CSC[C@@H](C(=O)NCC(=O)NCC(=O)N2CCC[C@H]2C(=O)N[C@@H](CO)C(=O)N[C@@H](CO)C(=O)NCC(=O)N[C@@H](C)C(=O)N2CCC[C@H]2C(=O)N2CCC[C@H]2C(=O)N2CCC[C@H]2C(=O)N[C@@H](CO)C(N)=O)NC(=O)[C@H](CC(C)C)NC(=O)[C@H](CC(C)C)NC(=O)[C@H](Cc2ccc(O)cc2)NC(=O)[C@H](CCC(=O)O)NC1=O [TG52] (H-Y[Aib]QGT[Phe(2-F)]TSDYSI[Iva]LDKK(Ac)AQ[Aib]CFIEYLLCGGPSSGAPPPS-NH2; linker 21-28 via X1),EC50,112 pM
